From patent publication US11026945B2, “Protein kinase RNA-like endoplasmic reticulum kinase (PERK) inhibitors for prevention and/or treatment of lung injury and/or inflammation” (THE TRUSTEES OF THE UNIVERSITY OF PENNSYLVANIA, priority 2016, dated 2021)

Legend:
[1] = system: cleaved caspase 3 (Casp3) in AEC-I monolayers; assay type: cell-based, rat
AEC-I monolayers = assay: Monolayer permeability, FITC-labeled streptavidin binding to biotin; assay type: cell-based, rat
Description: To obtain monolayer rat type-II alveolar epithelial cells (AEC-II), cells were isolated from Sprague-Dawley rats (250-300 g, N=30 purchased from Charles River Laboratories, Wilmington, Mass.) described by Tschumperlin D J, Margulies SS. Equibiaxial deformation-induced injury of alveolar epithelial cells in vitro. Am J Physiol. 1998; 275(6 Pt 1):L1173-83. Epub 1998/12/09 (PubMed PMID: 9843855), with modifications. Briefly, animals were killed and the lungs were harvested. The lung tissue was digested with elastase at 37° C. and distal airways were isolated. Following, cells were placed on rat IgG coated containing no serum for 90 minutes to eliminate contaminating leukocytes and parenchymal cells. This isolation method yielded approximately 95% pure alveolar epithelial cell population. 1.3 million cells were plated on 1 cm diameter fibronectin-coated custom made silastic membranes. In permeability studies, biotin were mixed with fibronectin and membranes were pretreated with oxygen plasma coating to ensure homogenous distribution of the fibronectin. Cells were cultured with 10% fetal bovine serum (FBS)-containing Minimal Essential Medium (MEM) containing low dose antibiotics for 3 days. 32 to 40 monolayers were per rat. On the 3rd day, matured monolayers were randomized to be exposed to one of the treatments for 24 hours (N=3 monolayers/treatment): • A. RNAiMax transfection reagent treatment using serum free media (Opti-MEM, Thermo Fisher Scientific, Waltham, Mass.). This is a negative control for siRNA experiments where serum free media is used for improved transfection efficiency; • B. non-targeting siRNA treatment ([…], Dharmacon) serves a negative control for transfection; • C. […]
The dose of siRNA and PI treatment was selected based on dose-response curves above (FIG. 2A-FIG. 2E). […] All membranes were treated with FITC-labeled streptavidin (Thermo Fisher Scientific) at the end of the experiment and light emission was detected at 488 nm with fluorescent microscopy (Nikon TE300, Melville, N.Y.). […]

Row | Compound | Casp3 levels ([1]; salubrinal, unstretched and stretched monolayers) | monolayer permeability (AEC-I monolayers; 10 uM salubrinal 2 hrs pretreatment) | cell death measured with cleaved caspase 3 (Casp3) ([1]; tunicamycin 1 μg/ml 24 hrs) | monolayer permeability (AEC-I monolayers; 1 ug/ml tunicamycin 24 hrs treatment, vs DMSO vehicle control)
1 | O=C(/C=C/c1ccccc1)NC(NC(=S)Nc1cccc2cccnc12)C(Cl)(Cl)Cl (stereo not shown) [salubrinal] | significant increase | increased permeability |  | 
2 | tunicamycin |  |  | not related to increased cell death | increased permeability
